Experimental data: patent US20150024008A1, “Methods and Compositions Involving Induced Senescent Cells for Cancer Treatment” (THE UNIVERSITY OF CHICAGO, priority 2011, published 2015)

Tests used:
[1] = test system: murine pancreatic cancer cell line p1048; experiment: SA-βGal staining and cytokine expression in p1048 cells; type: cell-based, mouse
Procedure: (§1) Slides were deparaffinized in xylene and hydrated with alcohol before being placed in 0.3% H2O2/methanol blocking solution to quench endogenous peroxidase activity followed by subsequent antigen unmasking in EDTA buffer. […] Reactions were developed with 3,3′-diaminobenzidine chromogen or Vulcan Red, respectively, and counterstained with hematoxylin. Negative controls were obtained by using isotype-matched primary antibody IgG. The SA-βGal assay was performed using the Senescence Beta-galactosidase Staining Kit (Cell Signaling) (Dunn 2006). All images were captured using Zeiss Axiovert 200M and Zeiss Axiocam color digital camera controlled by OpenLab software with a 20× objective. All primers sequence and running protocols for RT-PCR can be found in reference Table 2 (Lugade 2008, Zhang 2008).

[2] = test system: B16SIY murine melanoma cells; experiment: DNA damage foci (γH2AX, 53BP1) and SA-βGal senescence in B16SIY cells in vitro; type: cell-based, mouse; conditions: with IR
Procedure: as §1
(§2) B16SIY cells were maintained in a full medium supplemented with 10% FCS. The cells were pretreated with 10 μm veliparib then exposed to 6 or 12 Gy x-ray or IR alone (Gammacell 1000; MDS Nordion, Kanata, Ontario, Canada), then cocultured with immature BM-DC in a transwell system. 3 days later BM-DC were collected and analyzed by FACS for cell surface maturation marker and intracellular cytokines. These BM-DC were used to stimulate sorted CD4+ cells (Lugade 2008, Zhang 2008).

[3] = test system: TUBO murine mammary tumor cells; experiment: Senescence, SASP expression and ATP release of TUBO cells in low or high glucose media; type: cell-based, mouse
Procedure: as §1

[4] = test system: B16SIY murine melanoma tumors; experiment: H/E and SA-βGal staining of treated B16 tumors; type: in vivo, mouse; conditions: veliparib+IR vs IR or veliparib alone; 7 days after IR
Procedure: (§3) Mouse melanoma cell line B16SIY (5×10^5 cells) were implanted subcutaneously in the flank of 6 to 8-wk-old C57/B6 mice. Tumors were allowed to grow until they reached a volume of about 100 to 150 mm^3 (approximately 2 wk) before treatment with PARP inhibitor veliparib (vrib, (R)-2-(2-methylpyrrolidin-2-yl)-1H-benzo[d]imidazole-4-carboxamide, ABT-888) and/or IR (Dunn 2006). Mice received 0.5 mg of veliparib in water twice daily by oral gavage as indicated. CD8^+, CD4^+, NK cells were depleted by anti-CD8 or anti-CD4 or anti-NK1.1, respectively, 1 d before IR. Depletion was confirmed by checking peripheral blood samples by flow cytometry. Macrophages were depleted with liposomal clodronate starting 1 d before IR. Depletion was confirmed by checking splenocyte and tumor samples by flow cytometry (Zhang 2008). Samples were collected 2 to 7 days later, and analyzed by flow cytometry using a BD LSRII flow cytometer. Blood samples were gated in forward scatter and side scatter on smaller cells for CD8, CD4 analysis, larger cells for NK and macrophage, and the percentage of different cell types were determined (Lugade 2008, Zhang 2010).
Slides were deparaffinized in xylene and hydrated with alcohol before being placed in 0.3% H2O2/methanol blocking solution to quench endogenous peroxidase activity followed by subsequent antigen unmasking in EDTA buffer. […]

B16 tumors [5] = experiment: Flow cytometry of tumor infiltrating lymphocytes from B16 tumors; type: in vivo, mouse; conditions: veliparib+IR
Procedure: as §3

bone marrow DCs = experiment: BM-DC coculture with veliparib/IR treated B16 cells; type: cell-based, mouse
From the text: as §2, with “These BM-DC were used to stimulate sorted CD4+ cells (Lugade 2008, Zhang 2008).” left out

B16 tumors [6] = experiment: RT-qPCR and immunohistochemistry of treated B16 tumors; type: in vivo, mouse
Procedure: as §3, §1

B16 melanoma cells = experiment: RT-qPCR of SASP cytokines in B16 cells treated in vitro; type: cell-based, mouse; conditions: veliparib+IR
Procedure: as §1, §2

[7] = veliparib+IR, 7 days after irradiation

C[C@]1(c2nc3c(C(N)=O)cccc3[nH]2)CCCN1 [veliparib, (R)-2-(2-methylpyrrolidin-2-yl)-1H-benzo[d]imidazole-4-carboxamide]
accelerated senescence and SASP ([1]; veliparib and 12 Gy): entering accelerated senescence and displaying an altered SASP | SA-βGal staining [1, 7]: induced SA-βGal staining | cytokine expression [1, 7]: upregulation of multiple cytokines | DNA damage foci resolution (γH2AX, p53BP1) ([2]; 24 h): delayed DNA damage foci resolution | accelerated senescence (cell morphology, SA-βGal) ([2]; day 7): induced accelerated senescence | cell survival ([3]; IR and veliparib+IR, low glucose medium): more cells survived | senescent cell morphology and SA-βGal expression ([3]; veliparib and 12 Gy, data not shown): fail to display either the characteristic cell morphology or SA-βGal expression | IFNβ and CCL5 expression kinetics ([3]; veliparib+IR, high glucose media): only showed low level IFNβ and CCL5 at day 7 | SA-βGal staining ([3]; veliparib+IR, low glucose media vs high glucose): More TUBO cells displayed enhanced senescence-associated β-galactosidase staining | extracellular ATP release ([3]; veliparib+IR, low glucose media, higher density): higher ATP was detected | IFNβ and CXCL11 expression kinetics ([3]; veliparib+IR, low glucose medium): started at day 5 through day 10 | cell apoptosis ([3]; veliparib+IR, low vs high glucose medium): no increased cell apoptosis | enlarged cells and SA-βGal staining in tumors [4]: greater numbers of enlarged cells and more intense SA-βGal staining | NK cells in tumors (B16 tumors [5]): more abundant | proportion of IFNγ-producing CD8+ cells among tumor infiltrating lymphocytes (B16 tumors [5]): 29% | CD8+ cell proliferation stimulated by cocultured DCs (bone marrow DCs; DCs from coculture with veliparib+IR treated B16 cells): better stimulated CD8+ cell proliferation | CD11c+ cell proliferation (bone marrow DCs; coculture with B16 cells treated with veliparib+6 Gy vs untreated or irradiated cells): increased CD11c+ cell proliferation | CD11c+ cell maturation (MHC-II+, CD86+) (bone marrow DCs; coculture with veliparib+IR-treated cells vs radiation only): enhanced CD11c+ cell maturation | SASP gene expression in tumors (IFNβ, IFNγ, CCL2, CCL5, CXCL9, CXCL10, CXCL11) (B16 tumors [6]; veliparib+IR): increased expression of SASP genes | immunohistochemistry of enlarged senescent tumor cells (B16 tumors [6]; veliparib+IR): distinct strong staining of IFNβ, CCL2, CXCL9 and CXCL10 | p21 and p16 expression in tumors (B16 tumors [6]; veliparib+IR vs IR alone, normalized to GAPDH): significantly increased expression of p21 and p16 | chemokine expression (CCL2, CCL3, CCL5, CXCL9, CXCL10, CXCL11) (B16 melanoma cells): upregulated | IFNβ transcription (B16 melanoma cells; 7 days after 6 Gy): increased transcription of IFNβ | IL-6 transcription (B16 melanoma cells; 7 days after 6 Gy): decreased IL-6
